Usually melting point stands for the temperature, or range, at which the solid turns liquid.

The values that follow come from a melting point compilation (Tetko et al.; mined from patent text by program, amines drawn as free bases though some values may be those of a salt).

Take `CC(C)(C)C(O)(COc1ccc(F)cc1)C(F)n1cncn1` (centres undefined): the melting point was in the range of 89 to 90 °C.

As for `COc1ccc(C(=O)Nc2c(Cl)cncc2Cl)c2c1OCC2CC(=O)NCc1ccccc1Cl` (centres undefined), the melting point is 288 to 289 °C.

For the compound `CCOC(=O)c1ccc(CCC=O)cc1`, the melting point worked out at 109 °C.

As for `FC(F)(F)c1cccc(N2CCN(Cc3cn4cc(Cl)ccc4n3)CC2)c1`, the melting point fell in the range of 145 to 146 °C.

In turn, `CC(=O)c1ccc(Nc2c(F)c(F)cc(F)c2F)c(CC(=O)N(C)C)c1` displayed a melting point of 112 to 114 °C.

On to `O=C1c2c(-c3ccccc3)noc2CCC1CCCN1CCCCC1` (centres undefined), for which the melting point lay within 91.5 to 93.5 °C.

Compound `CCOC(=O)c1cc(-c2ccc(OC)cc2)nn(C(C)C)c1=O` had a melting point of 141 °C.

Compound `COc1ccc(C2CNC(=O)C2)cc1I` (centres undefined) registered a melting point of 158 °C.

In turn, `O=[N+]([O-])c1ccc(-n2nc(-c3ccccc3O)nc2-c2ccccc2O)cc1` had a melting point of 180 to 183 °C.

`ON1C(c2ccccc2)CC2(CC1c1ccccc1)OCCO2` (centres undefined): the melting point was 161 to 162 °C.

On to `CCC1=C(Cl)C(=O)c2ccccc2C1=O`, for which the melting point lay within 109 to 110 °C.

Compound `CCOC=Nc1[nH]nc(Nc2cccc(OC)c2)c1C#N` showed a melting point of 181 to 183 °C.

`Oc1ccc(CN(Cc2ccc(O)c3ncccc23)Cc2ccc(O)c3ncccc23)c2cccnc12` came in with a melting point of 175 to 178 °C.

On to `COc1cc(N)c(Cl)cc1C(=O)NCC1CCN(CCCCN)CC1`, for which the melting point lay in the range of 104 to 107 °C.

On to `CC#CC1(C)OC(=O)Nc2ccc(-c3cccc(Cl)c3)cc21` (centres undefined), for which the melting point was in the range of 184 to 185 °C.

For the compound `CC(=O)c1sc2c(Br)cccc2c1C`, the melting point lay within 105 to 107 °C.

Take `COc1cc2oc(=O)c3c(c2c(OC)c1OC)CCN(CC(C)=O)C3`: the melting point fell in the range of 114 to 116 °C.

`Nc1nnc(-c2ccc(CN3CCCCCC3)s2)s1` returned a melting point of 156 to 157 °C.

As to `Cc1nc(-c2cc3c4ccccc4n(CCCCl)c3cn2)no1`, the melting point lay within 130 to 135 °C.

`CCN1C(=O)CCCc2cc(Nc3ncc(Cl)c(Nc4ccccc4C(=O)NC)n3)c(OC)cc21` registered a melting point of 232 to 233 °C.

Consider `CC(=O)Nc1c(C)c(C)c2c(c1C)CC(C)(C)O2`, for which the melting point came to 190 °C.

With `O=C(c1c(F)cccc1F)N1COCN(c2ccc(S(=O)C(F)F)cc2F)C1=O` (centres undefined), the melting point is 138 to 140 °C.

Compound `Cc1cc(C)nc(NC(=O)NS(=O)(=O)c2ccccc2C(F)F)n1` returned a melting point of 190 to 195 °C.

Compound `CCCn1c(=O)c2c(nc(/C=C/c3ccco3)n2C)n(CCC)c1=O` registered a melting point of 161 to 162 °C.

On to `CC(C)C(C)NC1=NS(=O)(=O)c2cc(Cl)c(Cl)cc2N1` (centres undefined), for which the melting point was 242 to 250 °C.

With `COc1cc(NC(C)=O)c(Cl)cc1C(=O)NN1CCN(Cc2cccs2)CC1`, the melting point was in the range of 178 to 181 °C.

`C[C@@H](CO)NC(=S)[C@@H](CC(=O)OC(C)(C)C)NC(=O)OC(C)(C)C` had a melting point of 70 to 72 °C.

The compound `O=C1CCCCN1c1ccc(I)cc1` came in with a melting point of 108 to 110 °C.

`CC(C)n1nc(-c2cc(C#N)c(=O)[nH]c2-c2ccccc2)ccc1=O`: the melting point is > 250 °C.

Regarding `O=c1c2cccnc2c(-c2cccc(Cl)c2)cn1CC1CC1`, the melting point was in the range of 120 to 122 °C.

`CCOC(=O)CCc1cn(Cc2ccc(OCc3ccccc3)cc2)nc1OCc1ccc(OCc2ccccc2)cc1`: the melting point is 98 to 99 °C.

`CC(C(=O)O)(c1ccc(N2CCOCC2)cc1)c1ccc(N2CCOCC2)cc1` came in with a melting point of 217 to 223 °C.

On to `COc1cc(-c2cnc3[nH]cc(C(=O)Cc4ccccc4)c3n2)cc(OC)c1OC`, for which the melting point was 226 to 227 °C.

In the case of `O=Cc1ccc(OCC=Cc2ccccc2)cc1`, the melting point lay in the range of 89.5 to 90.5 °C.

`C=CC(=O)NCCCCCC(=O)O` came in with a melting point of 88 to 90 °C.

The compound `Cc1cccc(-c2[nH]c(C(C)C)nc2-c2cccc(-c3ccc(C(N)=O)cn3)c2)n1` gave a melting point of 138 to 144 °C.

In the case of `COc1ccc(CCC(=O)Nc2ccccc2C(=O)O)cc1OC`, the melting point stood at 137 °C.

`Cc1cccc(NC(=O)NCC(=O)N(CC(=O)N(C)c2ccccc2)c2ccccc2Cl)c1` gave a melting point of 180 °C.

In turn, `Clc1ccc(OC2CCC3(CCNCC3)CC2)cc1` returned a melting point of 140 to 142 °C.

Compound `O=c1ccc(-c2c(-c3ccccc3)nn3ccccc23)nn1C1CCCCC1` returned a melting point of 115 to 117 °C.

For `CCOC(=O)C(C#N)=Cc1ccc([N+](=O)[O-])cc1C`, the melting point fell in the range of 180 to 210 °C.

The compound `CCc1cccc(C)c1CNc1nc(C(=O)N2CCCC2)cn2c(C)c(C)nc12` came in with a melting point of 197 °C.

Compound `O=C(Cc1ccc(OCc2ccccc2F)cc1)NC1(C(=O)O)Cc2ccc(-c3ccc(Cl)cc3)cc2C1` (centres undefined) returned a melting point of 232 to 233 °C.

`COc1ccc(C2=NN(c3ccccc3)C(=O)[C@H]3CCCC[C@@H]23)cc1OC` (relative stereo): the melting point was 122 to 124 °C.

Consider `COC(=O)c1cccc2c(C=O)c[nH]c12`, for which the melting point was 153 to 154 °C.

`O=C(NCc1cccs1)C12CC3CC(CC(O)(C3)C1)C2` had a melting point of 140 to 141 °C.

`CC(C)Cc1ccc(COc2ccc(CC(=O)O)cc2Cl)cc1` registered a melting point of 97 to 99 °C.

Take `C=C(C)C(=O)Nc1cccc2c(O)cccc12`: the melting point is 223 to 224 °C.

The compound `N#CC1=C(c2ccccc2)Nc2ccccc2S1(=O)=O` returned a melting point of 286 to 289 °C.

`C=CCC1C2CCC(C2)C1NC(=O)OCc1ccccc1` (centres undefined) had a melting point of 70 °C.

In the case of `CC(C)N(CCCC(=O)OC1c2ccccc2C(=O)N1c1ccc2ccc(Cl)nc2n1)C(C)C` (centres undefined), the melting point is 118 °C.

For the compound `NCc1ccc(Nc2ncnc3[nH]cc(C(=O)c4ccccc4)c23)cc1`, the melting point is 255 to 257 °C.

With `CC1(C)C(=O)Nc2ccc(-c3ccc(C#N)o3)cc21`, the melting point fell in the range of 193 to 194 °C.

For the compound `COc1cc(Nc2c(C#N)cnc3cc(-c4cc5ccccc5o4)sc23)c(Cl)cc1Cl`, the melting point lay within 281 to 282 °C.

`COc1cc(CI)ccc1C12CC3CC(CC(C3)C1)C2`: the melting point was in the range of 143 to 144 °C.

The compound `Cc1cc(-c2ccnn2-c2ccc(S(N)(=O)=O)c(F)c2C(F)F)ccc1-c1cscn1` showed a melting point of 204 °C.

`COc1cc(OC)nc(NC(=O)NS(=O)(=O)c2c3c(Cl)cccc3nn2C)n1` showed a melting point of 171 to 172 °C.

Turning to `CC(C)(C)c1cc(C(=NNc2ccccc2)c2ccccc2)cc(C(C)(C)C)c1O`, the melting point lay in the range of 144 to 145 °C.

`NC(=O)c1ccc(COc2ccc3c(c2)CCN(C2CCN(C4CCC4)CC2)C3=O)cc1` displayed a melting point of 292 to 293 °C.

`c1cc(-c2cn3c(n2)CCC3)ccn1`: the melting point fell in the range of 140 to 141 °C.

As for `CN(C)CC(=O)N1Cc2cccc3c2N(CC3)c2ccccc21`, the melting point was in the range of 104 to 107 °C.

Compound `Clc1nccnc1N1CCNCC1` had a melting point of 47 to 53 °C.

In the case of `C[Si](C)(CCCc1nnc(N)nc1O)c1ccccc1`, the melting point is 250 to 252 °C.

For the compound `O=C1CCCc2cc(Sc3ccccc3)cc(F)c21`, the melting point lay in the range of 112 to 113 °C.

Compound `CC(C)CC(NC(=O)C(Cc1ccccc1)NC(=O)C1CCCCC1C(=O)O)C(=O)O` (centres undefined) came in with a melting point of 84 to 122 °C.

Take `CCn1cc(CC(=O)OC)c(O)n1`: the melting point was in the range of 72 to 73 °C.

The compound `CC(=O)C1=CCC2C3CCC4CC(OS(=O)(=O)c5ccc(C)cc5)CCC4(C)C3CCC12C` (centres undefined) displayed a melting point of 146 to 148 °C.

Turning to `O=C(O)CCc1cc2nc(Cl)ccc2n1S(=O)(=O)c1ccc2ncsc2c1`, the melting point was 248 °C.

`Cc1cc(CNC(=O)c2nc3n(c(=O)c2O)CCN3C)ccc1F` returned a melting point of 187 to 189 °C.

For the compound `CC(C)(C)c1cc(-c2csc(CNC(=O)Cc3ccccc3)n2)cc(C(C)(C)C)c1O`, the melting point fell in the range of 124 to 125 °C.

Turning to `O=C(O)c1[nH]c(-c2ccccc2)cc1-c1ccc(O)cc1`, the melting point was in the range of 192 to 193 °C.

In turn, `COc1cc(N)c(Cl)cc1C(=O)NC1CNCCn2c1nc(-c1ccncn1)cc2=O` (centres undefined) showed a melting point of 277 to 279 °C.

With `COc1ccccc1Cc1nc2n(c1Cc1ccccc1OC)CCS2`, the melting point was 212 to 213 °C.

`O[C@H](COc1cccc2[nH]ccc12)CN1CCC(c2c[nH]c3cc(C(F)(F)F)ccc23)CC1`: the melting point was in the range of 100 to 105 °C.

Compound `CCCCCC(=O)c1c(C)nc2cc(OC)c(OC)cc2c1-c1ccc(OC)c(OC)c1` showed a melting point of 123 to 125 °C.

In turn, `N#Cc1[nH]c(Br)c([N+](=O)[O-])c1Br` displayed a melting point of 170 to 175 °C.

Turning to `Cc1ccc2[nH]c3c(cc(-c4cccc(C(=O)N5CCOCC5)c4)c(=O)n3C)c2c1`, the melting point lay in the range of 296 to 298 °C.

Compound `CCC(O)c1ccc(Cl)c2nc3n(c12)CCCN3c1c(Cl)cc(OC)cc1Cl` (centres undefined) showed a melting point of 206 to 208 °C.

As to `BrCOc1cccc(OCc2ccccc2)c1`, the melting point was 70 to 71 °C.

In turn, `CC(C)n1c(C=O)c(-c2ccc(F)cc2)c(-c2ccccc2)c1C(N)=O` yielded a melting point of 187 to 188 °C.

On to `CCCCOCCOc1ccc(-c2ccc(N3CCCC3)c(C=C(CC)C(=O)O)c2)cc1`, for which the melting point lay in the range of 155 to 156 °C.

Consider `CC=Nc1cc(CO)cc(Nc2c3ccccc3nc3ccccc23)c1`, for which the melting point lay in the range of 158 to 161 °C.

For `O=C(NC1CCN(CCCOc2ccc3c4c(c(=O)oc3c2)CCC4)CC1)c1cccnc1`, the melting point lay within 199 to 200 °C.

For the compound `Cc1cc(N)c(C(=O)O)cc1F`, the melting point lay within 201 to 202 °C.

Turning to `CC(C)(C)[Si](C)(C)Oc1ccc(-c2ccccc2C=C2SC(=O)NC2=O)cc1C12CC3CC(CC(C3)C1)C2`, the melting point fell in the range of 277 to 278 °C.

Regarding `COC(=O)c1cc2ccnc(N)c2[nH]1`, the melting point is > 300 °C.

As to `CC(C)(C)CNc1cc(Cl)nc(NCC(C)(C)C)n1`, the melting point was 95 to 98 °C.

On to `N#CC(C(=O)Nc1ccccc1)C(=O)c1nn(-c2ccccc2)c2c1COc1c(CN3CCOCC3)cc(F)cc1-2` (centres undefined), for which the melting point is 249 to 253 °C.

`COc1cnc(Cl)c(C(N)=O)c1`: the melting point was 129 to 132 °C.
